Values joined by “and” are separate entries in the source; they are usually repeats but may differ in a detail not shown here. Identical values can stand only once.
How the values were obtained:
Format in all cases: cell-based, human
[1] = system: PBMC of healthy control individuals; test: GAD65 HLA class I tetramer staining and flow cytometry of stimulated PBMC, healthy controls; parameters: % CD3+/CD8+/GAD65 reactive T cells, average / % CD3+/CD8+/GAD65 reactive T cells: concentration or dose not given beside the values
[2] = system: CD8+/GAD65 reactive lymphocytes of a T1D patient; test: Early-late apoptosis (Annexin V / propidium iodide) in peptide stimulated PBMC
Description: At day 4 and day 6 from the beginning of the culture, 1×10^6 cells stimulated with the GAD65 peptide according to the above mentioned protocols were washed in the same washing phosphate buffer as described above and resuspended in the residual volume of approximately 50 μl. 1 μl PE-labelled GAD65 tetramer was used per staining procedure. Cells were then incubated with biotinylated anti-human CD8 MoAb (1:10 dilution, Becton Dickinson) in ice, for at least 30 min, in the dark. They were then washed with washing buffer by centrifugation at 1500 rpm for 5 min at room temperature. 5 μl of streptavidin-(Cy5) conjugate was then added for 30 min at room temperature, in the dark. Cells were then washed in ice cold PBS (2% FBS) by centrifugation at 1500 rpm for 5 min at room temperature. Cell pellet was then suspended in 500 μl of phosphate buffer. 10 μl of cold media binding reagent (Calbiochem, San Diego, Calif., USA) and 1.25 μl of Annexin V-FITC conjugate (Calbiochem) were added according to manufacturer's instructions. […] Staining was then immediately achieved and analysed by flow cytometry. […] Cells were evaluated as necrotic when stained with propidium iodide but negative for Annexin V, cells were evaluated as late apoptotic when propidium iodide positive and binding Annexin V, early apoptotic when propidium iodide negative and Annexin V positive and viable when negative for both stainings.

[3] = system: PBMC of healthy normal controls; test: T cell activation (CD69 staining) in stimulated PBMC, healthy controls; conditions: GAD65 peptide treated PBMC, day 6;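 note: GAD65 peptide 10 to 30 µg/ml in culture medium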
Description: (§1) PBMC were separated from 5-10 ml heparinized peripheral blood by Ficoll gradient centrifugation (Histopaque, Sigma-Aldrich, St. Luis, Mo., USA). […] This washing step was introduced in the method to remove the GAD65 peptide and therefore reduce the risk of aspecificities in the subsequent procedure of tetramer binding. […] Cells were then harvested and processed for tetramer staining and flow cytometric analysis.
(§2) On day 4 or day 6 from the beginning of culture, 1×10^6 cells were allocated for staining. They were washed by centrifugation at 1500 rpm for 5 min at room temperature in wash buffer [0.1% sodium azide, 2% FBS in PBS] then resuspended in the residual volume (approximately 50 μl). 1 μl of phycoerythrin (PE) labelled GAD65 tetramer was added and incubated in ice for 30^+ min in the dark. […] Cells were then washed twice in phosphate buffer and their staining achieved using a Beckton Dickinson FACSCalibur flow cytometer and analysed with the CellQuest software program. T cell activation was evaluated by staining cells with […] in different multiple staining experiments. […]

[4] = system: PBMC of newly diagnosed T1D patients; test: GAD65 HLA class I tetramer staining and flow cytometry of stimulated PBMC, T1D patients; parameters: % CD3+/CD8+/GAD65 reactive T cells, average / % CD3+/CD8+/GAD65 reactive T cells: concentration or dose not given beside the values
[5] = system: PBMC of newly-diagnosed T1D patients; test: T cell activation (CD69 staining) in stimulated PBMC, T1D patients; conditions: GAD65 peptide treated PBMC, day 6;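 note: GAD65 peptide 10 to 30 µg/ml in culture medium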
Description: as §1, §2

Sequence: VMNILLQYV [GAD65 peptide]
- increase of the population of CD3+/CD8+/GAD65 reactive T cells (specificity of the response) [1]: no significant increase
- % CD3+/CD8+/GAD65 reactive T cells, average ([1]; GAD65-treated PBMC, average of 22 normal controls, day 6): 0.9%
- % CD3+/CD8+/GAD65 reactive T cells ([1]; GAD65-treated PBMC, individual normal controls, day 6 of culture): 0.37% and 0.42% and 2% and 0.09% and 0.97% and 0.6% and 8% and 1.21% and 0.25% and 0.9% and 1.03% and 0.49% and 0.23% (2×) and 0.03% and 0.21% and 0.11% and 0.13% and 0.14% and 0.17% and 0.86% and 0.57%
- percentage of CD8+/GAD65 reactive lymphocytes ([1]; healthy control donor, day 4, after GAD65 peptide stimulation (FIG. 9 B-C)): very low
- apoptosis (Annexin V) of CD8+/GAD65 reactive lymphocytes ([2]; T1D patient, day 4 of culture with the GAD65 peptide (FIG. 9 E-F)): shows signs of apoptosis
- population of Annexin V positive cells ([2]; same samples, day 6 of GAD65 peptide treatment (FIG. 10)): no longer detectable
- % CD69+/CD3+/CD8+ T cells, average ([3]; average of normal controls): 12.9%
- % CD69+/CD3+/CD8+ T cells ([3]; individual normal controls): 2.1% and 0.75% and 13.51% and 17% and 26% and 13.4% and 18% (2×) and 19% and 1.7%
- % CD3+/CD8+/GAD65 reactive T cells, average ([4]; GAD65 treated PBMC, average of 22 T1D patients, day 6): 30.0%
- % CD3+/CD8+/GAD65 reactive T cells ([4]; GAD65 treated PBMC, individual T1D patients, day 6 of culture): 73% and 17% and 12.5% and 14.08% and 1% (2×) and 19% and 98% and 85% and 68% and 22% and 70% and 82% and 21% and 1.35% and 2.64% and 0.81% and 3.19% and 58% and 2.59% and 2.28% and 6.39%
- Dot Plot pattern of CD8 expression of CD8+ GAD65 reactive T cells ([4]; T1D patients after GAD65 peptide stimulation, not seen in normal controls): peculiar pattern of low CD8 expression
- percentage of CD3+/CD8+/GAD65 reactive T cells compared to IL-2 stimulation ([4]; one T1D patient non-responding at day 6, 2 days peptide then 2 days IL-2, analysis at day 4 (FIG. 8)): significant increase
- % CD69/CD3/CD8 positive T cells, average ([5]; average of T1D patients): 18.9%
- % CD69/CD3/CD8 positive T cells ([5]; individual T1D patients): 13.5% and 10.94% and 24% and 39% and 28% (2×) and 42% and 18% and 4.63% and 1.5% and 3.2% and 20% and 9.87% and 22%

Reference: patent publication US20070026465A1, “Method for detecting GAD65 autoreactive T cells newly diagnosed type1 diabetic patients and in the prediabetic period” (priority 2005, published 2007)
